Assay results reported in patent publication EP4678750A1 (priority 2023, dated 2024).

Key:
[1] = tested on: replicon RNA transcribed from NOBEVR; experiment: microbe, parasite or virus in culture; format: cell-based, Nobecovirus
[2] = tested on: replicon RNA transcribed from SCVR; format: cell-based, SARS-CoV-1
[3] = Evaluation of cytotoxicity (WST-1); settings: human, HuH-7.6c cells
[4] = tested on: replicon RNA transcribed from SC2R; format: cell-based, SARS-CoV-2
[5] = tested on: replicon RNA transcribed from HKU1; format: cell-based, Embecovirus
[6] = tested on: replicon RNA transcribed from MERVR; format: cell-based, MERS-CoV
HCV replicon RNA = experiment: HCV subgenomic replicon replication, Renilla luciferase activity; format: cell-based, genotype 1b HCV (1B-4 strain); settings: Hepatitis C virus; 72 hours, RL activity, FIG. 15B; read-out: EC50, inhibition of the replication of HCV replicon RNA
[7] = tested on: replicon RNA transcribed from SC2R; experiment: microbe, parasite or virus in culture; format: cell-based, SARS-CoV-2; settings: Severe acute respiratory syndrome coronavirus 2, 48 h, read-out: EC50, inhibition of the replication of replicon RNA transcribed from SC2R

Structure (SMILES)	replication of replicon RNA transcribed from NOBEVR [1]	replication of replicon RNA transcribed from SCVR [2]	replication of replicon RNA transcribed from SC2R [4]	replication of replicon RNA transcribed from HKU1 [5]	replication of replicon RNA transcribed from MERVR [6]	replication of replicon RNA in NOBEVR [1]	replication of replicon RNA in HKU1 [5]	also measured
CC1(C)CCC(c2ccc(Cl)cc2)=C(CN2CCN(c3ccc(C(=O)NS(=O)(=O)c4ccc(N[C@H](CCN5CCOCC5)CSc5ccccc5)c(S(=O)(=O)C(F)(F)F)c4)cc3)CC2)C1 [navitoclax]	inhibited	inhibited	inhibited	inhibited	inhibited			inhibitory activity against the replication of replicon RNA transcribed from NOBEVR [1]: inhibitory activity; EC50 ([1]; Nobecovirus, 48 h, read-out: EC50, inhibition of the replication of replicon RNA transcribed from NOBEVR): 280 nM; CC50 at 48 h [3]: 18600 nM
CN(C)CC[C@H](CSc1ccccc1)Nc1ccc(S(=O)(=O)NC(=O)c2ccc(N3CCN(Cc4ccccc4-c4ccc(Cl)cc4)CC3)cc2)cc1[N+](=O)[O-] [ABT-737]	inhibited	inhibited	inhibited	inhibited	inhibited			
NC(=O)c1nc(F)c[nH]c1=O [favipiravir]						did not inhibit	did not inhibit	
CC(C)(C)[C@H](NC(=O)C(F)(F)F)C(=O)N1C[C@H]2[C@@H]([C@H]1C(=O)N[C@H](C#N)C[C@@H]1CCNC1=O)C2(C)C [PF-07321332]						did not inhibit	did not inhibit	
Cn1cnc(Cn2c(=O)[nH]/c(=N\c3cc4cn(C)nc4cc3Cl)n(Cc3cc(F)c(F)cc3F)c2=O)n1.O=C(O)/C=C/C(=O)O [ensitrevir fumarate]						did not inhibit	did not inhibit	
COc1cc2c(cc1OC)[C@@H](Cc1ccc(Oc3cc(C[C@@H]4c5cc(OC)c(OC)cc5CCN4C)ccc3O)cc1)N(C)CC2 [dauricine]								inhibitory activity against the replication of replicon RNA transcribed from NOBEVR [1]: strong inhibitory activity; replicon RNA replication inhibitory activity against SC2R [4]: replicon RNA replication inhibitory activity
COc1cc2c(cc1O)[C@@H](Cc1ccc(O)c(Oc3ccc(C[C@@H]4c5cc(OC)c(OC)cc5CCN4C)cc3)c1)N(C)CC2 [daurisoline]								inhibitory activity against the replication of replicon RNA transcribed from NOBEVR [1]: strong inhibitory activity; replicon RNA replication inhibitory activity against SC2R [4]: replicon RNA replication inhibitory activity
CN(C)CC#Cc1ccc(OCCCc2sc(N3CCc4cccc(C(=O)Nc5nc6ccccc6s5)c4C3)nc2C(=O)O)c(F)c1 [A-1155463]	inhibited	inhibited	inhibited	inhibited	inhibited			concentration responsiveness of the replication level of SARS-CoV-2 replicon RNA [4]: inhibited the replication of replicon RNA transcribed from SC2R in a concentration-dependent manner
Cc1c(-c2ccc(N3CCc4cccc(C(=O)Nc5nc6ccccc6s5)c4C3)nc2C(=O)O)cnn1CC12CC3CC(CC(C3)C1)C2 [A-1331852]	inhibited	inhibited	inhibited	inhibited	inhibited			EC50 (HCV replicon RNA): 14.8 nM; EC50 [7]: 1.46 nM
CCC(CC)COC(=O)[C@H](C)N[P@](=O)(OC[C@H]1O[C@@](C#N)(c2ccc3c(N)ncnn23)[C@H](O)[C@@H]1O)Oc1ccccc1 [remdesivir]						did not inhibit	did not inhibit	
CC1(C)CCC(CN2CCN(c3ccc(C(=O)NS(=O)(=O)c4ccc(NCC5CCOCC5)c([N+](=O)[O-])c4)c(Oc4cnc5[nH]ccc5c4)c3)CC2)=C(c2ccc(Cl)cc2)C1 [venetoclax]			did not inhibit					
CC(C)=CCC[C@]1(C)C=Cc2c(O)c3c(c(CC=C(C)C)c2O1)O[C@]12C(=C[C@@H]4C[C@H]1C(C)(C)O[C@@]2(C/C=C(/C)C(=O)O)C4=O)C3=O [gambogic acid]			inhibited					
